According to patent US20160324852A1, “COMPOSITIONS AND METHODS OF TREATING A NEURODEGENERATIVE DISEASE” (Axovant Sciences Ltd., priority 2015, published 2016):

Experiments:
rats = experiment: nonclinical studies, seizures in rats; format: in vivo
clinical = conditions: human, in vivo
rabbits = experiment: nonclinical studies, seizures in rabbits; format: in vivo
Experimental: (§1) The 35 mg dose was evaluated in four Phase 2 trials and is the dose being evaluated in a Phase 3 pivotal study. In the AZ310866 Phase 2b study, there was a dose dependent increase in efficacy vs placebo in the ADAS-Cog score between 15 mg (−0.7 units) and 35 mg (−1.7 units). […] These benefits need to be balanced with the potential for adverse events, in particular, the CNS toxicity observed in dogs and rabbits described below. […] In the 26-week dog study, one high-dose dog had seizures on Day 55 and was euthanized. A second dog had seizures on Day 59 and survived. For the second dog, plasma samples taken approximately 5 minutes and two hours after the seizure (4 and 6 hours post dose on Day 59) had SB742457 concentrations of 1570 and 1440 ng/mL, respectively. […] In study SB742457/005, elderly subjects received 35 mg once daily of 3-phenylsulfonyl-8-piperazinyl-1yl-quinoline for 28 days. […] This mean value is approximately ¼th the Cmax value observed in dogs with seizures. The maximum concentration that may be achieved is approximately ½ the Cmax value observed in the 2 dogs with seizures. […]

[1] = system: healthy rat brain glucose utilization; experiment: FDG-PET/CT brain glucose utilization in healthy rats; format: in vivo; conditions: healthy young CD rats, 10 mg/kg or 20 mg/kg 3 h prior to FDG; pairwise comparisons did not reach statistical significance
Description: 3-phenylsulfonyl-8-piperazinyl-1yl-quinoline is a potent antagonist of the 5-hydroxytryptamine 6 (5-HT6) serotonin receptor. Reduced glucose utilization is an early sign of decreasing brain function in AD. Altered neuronal glucose uptake assessed by flurodeoxyglucose-positron emission tomography (FDG-PET) may be useful as a diagnostic foundation for identifying patients with AD. This study evaluates 3-phenylsulfonyl-8-piperazinyl-1yl-quinoline at clinically relevant doses on healthy rat brain glucose utilization using FDG-PET/CT.
Methods: Healthy, young CD rats were pre-dosed with vehicle (1% methylcellulose, w/v) or RVT-101 (10 mg/kg or 20 mg/kg) 3 h prior to FDG (18.1±3.5 MBq, i.v.). Brain FDG standard uptake values (SUV) were quantified using scanning in single 20 min list mode (BioPET/CT, Sedecal) starting 30 min post FDG dosing. PET/CT scans were analyzed as a single time frame summarizing counts over 20 min. All experiments were completed in an accredited facility according to NIH guidelines. PET/CT imaging data were analyzed using Student's t-test, cluster analysis, and multivariate analysis of variance (MANOVA) using a subset of SUV from 5 cluster-identified regions.

mice = experiment: nonclinical studies, seizures in mice; format: in vivo
dogs = experiment: in vivo; conditions: dog
Experimental: (§2) The 35 mg dose was evaluated in four Phase 2 trials and is the dose being evaluated in a Phase 3 pivotal study. In the AZ310866 Phase 2b study, there was a dose dependent increase in efficacy vs placebo in the ADAS-Cog score between 15 mg (−0.7 units) and 35 mg (−1.7 units). […] These benefits need to be balanced with the potential for adverse events, in particular, the CNS toxicity observed in dogs and rabbits described below. […] In the 26-week dog study, one high-dose dog had seizures on Day 55 and was euthanized. A second dog had seizures on Day 59 and survived. For the second dog, plasma samples taken approximately 5 minutes and two hours after the seizure (4 and 6 hours post dose on Day 59) had SB742457 concentrations of 1570 and 1440 ng/mL, respectively. […] In study SB742457/005, elderly subjects received 35 mg once daily of 3-phenylsulfonyl-8-piperazinyl-1yl-quinoline for 28 days. […] This mean value is approximately ¼th the Cmax value observed in dogs with seizures. The maximum concentration that may be achieved is approximately ½ the Cmax value observed in the 2 dogs with seizures. To further understand the risk to humans, SimCYP population PBPK modelling was used to predict brain concentrations of 3-phenylsulfonyl-8-piperazinyl-1yl-quinoline in dogs exposed to the concentrations linked with seizures, and to compare these with predicted human brain concentrations at the clinical dose of 35 mg. The simulations predicted that the human steady-state brain concentrations following repeat administration with 35 mg would be approximately 40-fold lower than the brain concentrations associated with seizures in dogs. Assuming linear pharmacokinetics, the human steady-state brain concentrations with 70 mg would be approximately 20-fold lower than the brain concentrations associated with convulsions in dogs. […] Furthermore, in Phase 2 studies encompassing 1024 patients with Alzheimer's disease at doses of 5 mg to 35 mg per day, two subjects reported seizures, both in the Phase 2b study with 3-phenylsulfonyl-8-piperazinyl-1yl-quinolone administered as adjunctive therapy to donepezil. One subject was in the placebo group and one in the 15 mg 3-phenylsulfonyl-8-piperazinyl-1yl-quinoline group. The subject receiving 3-phenylsulfonyl-8-piperazinyl-1yl-quinoline was hospitalized with a suspicion of a TIA and experienced a seizure, which was reported by the PI as not attributable to study drug.

in vivo = conditions: dog
Experimental: as §2

[2] = rat maximal electroshock seizure threshold test; conditions: in vivo, exposure at which seizure threshold was not decreased, read-out: extrapolated Cmax
Experimental: as §1

[3] = system: patients with Alzheimer's disease; experiment: AZ310866 Phase 2b study, ADAS-Cog score vs placebo; format: in vivo, human
Experimental: as §1

healthy subjects = experiment: clinical studies with healthy subjects (n=225), seizures; format: in vivo; conditions: single doses of up to 175 mg and repeat doses of up to 50 mg for 13 days
Experimental: as §1

[4] = system: patients with Alzheimer's disease; experiment: Phase 2 studies in 1024 patients with Alzheimer's disease, seizures; format: in vivo; conditions: 15 mg group, Phase 2b study, adjunctive therapy to donepezil; reported as not attributable to study drug
Experimental: as §1

[5] = study SB742457/005, pharmacokinetics in elderly subjects; format: in vivo, human; conditions: for Cmax: human, plasma
Experimental: as §2

For O=S(=O)(c1ccccc1)c1cnc2c(N3CCNCC3)cccc2c1 [3-phenylsulfonyl-8-piperazinyl-1yl-quinoline], the seizures (rats) was “not in rodents”, the AUC (clinical) was ~3.2 µg·h/mL and the AUC(0-inf) (clinical) was ~9.25 µg·h/mL. For the same compound, the Cmax (clinical; Cmax) was ~0.293 µg/mL, the Cmax (clinical; mean Cmax) was ~0.18 µg/mL and the seizures (rabbits; nonclinical studies) was “caused seizures”. The seizures (rabbits; single dose at 300 mg/kg, exceeded the maximum tolerated repeat-dose level) was “seizures were produced”, the “brain glucose uptake (FDG SUV)” value [1] was “trend of increased glucose uptake” and the seizures (mice) was “not in rodents”. The “plasma concentration associated with an increased seizure risk” value (dogs) was > 1.57 µg/mL, the plasma concentrations achieved (dogs) was “up to 1937 ng/mL” and the seizures (dogs; 7.5 mg/kg/day) was “did not occur”. The Cmax (in vivo) was 1.7 µg/mL, the concentration at 4 h post dose on Day 59 (in vivo) was 1.57 µg/mL and the concentration at 6 h post dose on Day 59 (in vivo) was 1.44 µg/mL. The Cmax [2] was 1.89 µg/mL, the “increase in efficacy vs placebo in the ADAS-Cog score” value ([3]; 15 mg) was −0.7 units and the “increase in efficacy vs placebo in the ADAS-Cog score” value ([3]; 35 mg) was −1.7 units. For the same compound, the seizures (healthy subjects) was “no seizures were observed”, the subjects reporting seizures [4] was “one” and the Cmax ([5]; both sexes, 35 mg, elderly subjects, 35 mg once daily for 28 days, read-out: highest recorded Cmax) was 0.307 µg/mL. The Cmax ([5]; female, 35 mg, elderly females, 35 mg once daily for 28 days, read-out: mean Cmax) was 0.177 µg/mL, the “expected maximum concentration at 70 mg relative to the Cmax observed in the 2 dogs with seizures” value ([5]; human 70 mg vs dog) was “approximately ½” and the “expected mean Cmax at 70 mg relative to the Cmax observed in dogs with seizures” value ([5]; human 70 mg vs dog) was “approximately ¼”. For the same compound, the Cmax ([5]; oral, 70 mg, multiple dosing with 70 mg, extrapolated given linear human pharmacokinetics, read-out: expected maximum Cmax) was 0.714 µg/mL, the Cmax ([5]; oral, 70 mg, multiple dosing with 70 mg, extrapolated given linear human pharmacokinetics, read-out: expected mean Cmax) was ~0.36 µg/mL and the Cmax ([5]; male, 35 mg, elderly males, 35 mg once daily for 28 days, read-out: mean Cmax) was 0.181 µg/mL.
